# Read-outs that look alike come from different tables or passages of the source.
# Assays:
# [1] = tested on: human leukemia cell line MV4-11; test: In vitro tumor cell proliferation inhibition (MTT): MV4-11; format: cell-based
# Text: (§1) The purpose of the experiment was to test the inhibition activity of the compounds of the invention for in vitro human tumor cell proliferation by the methyl thiazolyl tetrazolium (MTT) colorimetry.
# (§2) Main reagents: RPMI-1640, fetal bovine serum, pancreatin, etc. were purchased from Gibco BRL Company (Invitrogen Corporation, USA) and IMDM medium that was purchased from American Type Culture Collection (ATCC). Methyl thiazolyl tetrazolium (MTT) and dimethyl sulfoxide (DMSO) were products from Sigma Company (USA). Pyrazolopyrimidine derivatives were composed by the inventor. During in vitro experiment, 100% DMSO was prepared into 10 mM storage solution, the solution was stored in a refrigerator at −20° C. for future use, and was diluted to the required concentration with complete culture solution before use.
# (§3) Cell line and culture: Human leukemia cell line MV4-11, Jurkat, K562, human thyrophyma cell line TT, human gastric carcinoma cell line MKN-45, human malignant melanoma cell lines A375 and A875, human pancreatic carcinoma cell line panc-1, human cervical carcinoma cell line HELA, human colorectal carcinoma cell line HCT116, etc. were purchased from American type culture collection and were preserved by this laboratory. All leukemia cell lines (except MV4-11), gastric carcinoma cell lines and thyrophyma cell lines were cultured in RPMI-1640 complete medium containing 10% fetal bovine serum, 100 U/mL penicillin and 100 μg/mL streptomycin at 37° C. in 5% CO2. The remaining cell lines were cultured in DMEM complete medium containing 10% fetal bovine serum (containing 20% MV4-11 cell), 100 U/mL penicillin and 100 µg/mL streptomycin at 37° C. in 5% CO2.
# (§4) Cell suspension with cell concentration of 1-2×10^4/mL was adjusted with the complete cell medium and inoculated in a 96-well plate, with each well filled with 200 μl cell suspension that was cultured overnight. On the next day, supernatant was sucked and abandoned (supernatant was sucked upon centrifugation of suspension cells), and then cells were processed with test compounds at gradient concentrations respectively. Meanwhile, a negative control group free from drug and a solvent control group with equal volume were set, and the DMSO concentration was 0.1%. Each dose group was provided with three wells and cultured at 37° C. in 5% CO2. After 72 hours, 20 μl 5 mg/mL MTT reagent was added to each well, and cultured for another 2 to 4 hours, the supernatant was abandoned; 150 μL DMSO was added to each well again, vibrated and mixed evenly for 15 minutes; the absorbance (A) values (proportional to living cell amount) were determined with a microplate reader (λ=570 nm) and averaged. […] Experiment was repeated for 3 times at least. Experimental data were expressed with means, data statistics were tested by t, and P<0.05 means that difference has a statistical significance. The cell proliferation inhibition effects of all compounds as follows are expressed by IC50 or inhibition rate.
# [2] = tested on: human gastric carcinoma cell line MKN-45; test: In vitro tumor cell proliferation inhibition (MTT): MKN-45; format: cell-based
# Text: as §1, §2, §3, §4
# [3] = tested on: human malignant melanoma cell line A375; test: In vitro tumor cell proliferation inhibition (MTT): A375; format: cell-based
# Text: as §1, §2, §3, §4
# [4] = tested on: human malignant melanoma cell line A875; test: In vitro tumor cell proliferation inhibition (MTT): A875; format: cell-based
# Text: as §1, §2, §3, §4
# [5] = tested on: human pancreatic carcinoma cell line panc-1; test: In vitro tumor cell proliferation inhibition (MTT): panc-1; format: cell-based
# Text: as §1, §2, §3, §4
# [6] = tested on: human leukemia cell line Jurkat; test: In vitro tumor cell proliferation inhibition (MTT): Jurkat; format: cell-based; conditions: 72 hours
# Text: as §1, §2, §3, §4
# [7] = tested on: human colorectal carcinoma cell line HCT116; test: In vitro tumor cell proliferation inhibition (MTT): HCT116; format: cell-based
# Text: as §1, §2, §3, §4
# [8] = tested on: human leukemia cell line K562; test: In vitro tumor cell proliferation inhibition (MTT): K562; format: cell-based
# Text: as §1, §2, §3, §4
# [9] = tested on: human thyrophyma cell line TT; test: In vitro tumor cell proliferation inhibition (MTT): TT; format: cell-based
# Text: as §1, §2, §3, §4
# [10] = tested on: human cervical carcinoma cell line HELA; test: In vitro tumor cell proliferation inhibition (MTT): HELA; format: cell-based; conditions: 72 hours
# Text: as §1, §2, §3, §4
# [11] = tested on: human acute myeloid leukemia cell line MV4-11; test: In vivo anti-leukemia tumor experiment, NOD-SCID mice-subcutaneous MV4-11 model, tumors more than 2000 mm^3
# Text: The cell line used was human acute myeloid leukemia cell line MV4-11, with anti-leukemia drug Quizartinib (AC220) as a positive control.
# [12] = Homo sapiens, HCT-116, 72 hours
"IC50 ([1]; Homo sapiens, MV4-11, 72 h)","IC50 ([2]; Homo sapiens, MKN-45, 72 hours)","IC50 ([3]; Homo sapiens, A-375, 72 hours)","IC50 ([4]; Homo sapiens, A875, 72 hours)","IC50 ([5]; Homo sapiens, PANC-1, 72 hours)","IC50 ([6]; Homo sapiens, Jurkat)","IC50 [7, 12]","IC50 ([8]; Homo sapiens, K562, 72 hours)","IC50 ([9]; Homo sapiens, 72 h)","IC50 ([10]; Homo sapiens, HeLa)",Structure (SMILES),also measured
1 nM,3 to 10 µM,3 to 10 µM,3 to 10 µM,3 to 10 µM,3 to 10 µM,< 50 µM,–,–,–,"Cn1nc(C(C)(C)C)cc1NC(=O)Nc1ccc(Oc2ncnc3[nH]ncc23)c(Cl)c1 [4a-32, 1-(4-((1H-pyrazolopyrimidine-4-yl)oxy)-3-chlorphenyl)-3-(3-tert-butyl-1-methylpyrazol-5-yl)urea]",–
–,–,–,–,–,–,–,–,–,–,O=C(Nc1cccc(Oc2ncnc3[nH]ncc23)c1)Nc1cccc(C(F)(F)F)c1 [4a-41],"IC50 ([1]; 72 hours): 7820 nM; IC50 ([2]; 72 hours): < 50 µM; IC50 ([3]; 72 hours): < 50 µM; IC50 ([4]; 72 hours): < 50 µM; IC50 ([5]; 72 hours): < 50 µM; IC50 [6]: < 50 µM; IC50 ([8]; 72 hours): < 50 µM; IC50 ([7]; 72 hours, read-out: Proliferation inhibition activity (IC50) HCT 116): < 50 µM; IC50 ([9]; 72 hours): < 50 µM; IC50 [10]: < 50 µM"
< 5000 nM,< 50 µM,< 50 µM,< 50 µM,< 50 µM,< 50 µM,< 50 µM,< 50 µM,4.57 µM,< 50 µM,O=C(Nc1ccc(C(F)(F)F)cc1)Nc1cccc(Oc2ncnc3[nH]ncc23)c1 [4a-43],–
3 nM,< 50 µM,< 10 µM,< 10 µM,1 to 3 µM,1 to 3 µM,< 10 µM,3 to 10 µM,1 to 3 µM,< 50 µM,"CC(C)(C)c1cc(NC(=O)Nc2ccc(Oc3ncnc4[nH]ncc34)c(Cl)c2)no1 [4a-46, 1-(4-((1H-pyrazolopyrimidine-4-yl)oxy)-3-chlorphenyl)-3-(5-tert-butylisoxazol-3-yl)urea]",–
54.2 nM,–,–,–,< 50 µM,< 50 µM,< 50 µM,< 50 µM,–,–,O=C(Nc1ccc(Cl)c(C(F)(F)F)c1)Nc1ccc(Oc2ncnc3[nH]ncc23)cc1Cl [4a-55],–
0.0146 nM,–,–,–,–,–,–,–,–,< 50 µM,CC(C)(C)c1cc(NC(=O)Nc2ccc(Oc3ncnc4[nH]ncc34)cc2)n(C(=O)O)n1 [4a-58],"weight loss, rash, diarrhea and other adverse reactions during administration ([11]; NOD-SCID mice, 3 and 10 mg/kg q.d. oral): not found; in vivo tumor growth inhibition effect ([11]; daily dose of 3 mg/kg or above, oral, MV4-11 tumors more than 2000 mm^3 at start): completely inhibit tumor growth"
0.00984 nM,–,–,–,–,–,–,–,–,< 50 µM,CC(C)(C)c1cc(NC(=O)Nc2ccc(Oc3ncnc4[nH]ncc34)c(F)c2)n(C(=O)O)n1 [4a-59],–
28 nM,< 50 µM,–,–,–,< 50 µM,–,–,4.13 µM,< 50 µM,CN(C)CCCn1ncc2c(Oc3ccc(NC(=O)Nc4cc(C(C)(C)C)on4)cc3)ncnc21 [5a-6],–
–,< 50 µM,< 50 µM,< 50 µM,< 50 µM,< 50 µM,–,–,< 50 µM,–,"CC(C)n1ncc2c(Oc3ccc(NC(=O)Nc4cc(C(C)(C)C)[nH]n4)cc3)ncnc21 [5a-7, 1-(5-tert-butyl-1H-pyrazol-3-yl)-3-(4-(1-isopropyl-(1H-pyrazolopyrimidine-4-yl)oxy)phenyl)urea]",–

# From patent publication US9828375B2, “4-position substituted pyrazolopyrimidine derivative, and use thereof in drug preparation” (Guangxi Wuzhou Pharmaceuticals (Group) Co., Ltd., priority 2012, dated 2017)
